This passage reports IC50 results from patent US10730889B2, “Amido spirocyclic amide and sulfonamide derivatives” (Forma TM, LLC, priority 2012, dated 2020).

Structures are written as SMILES. pIC50: −log10 of the molar value.

One experiment has as its system A2780 cells. Description: In-vitro cell proliferation assay (SRB, 72 hours). It counts as cell-based. Conditions: Homo sapiens, A2780, 72 h, A2780 cells, 72 hours, SRB; read-out: Cell Proliferation (IC50).
Protocol: Assay 2: In-Vitro Cell Proliferation Assay
Assay Method. […] The compounds were then further diluted to 10× final concentration in culture media, whereupon 20 μL of each dilution was added to the plated cells with controls (e.g. DMSO and blank) to make a final volume of 200 μL. The final DMSO concentration in each well was 0.1%. The plates were then incubated for 72 hours at 37° C. in a 5% CO2 incubator. The number of viable cells was then assessed using sulforhodamine B (SRB) assay. Cells were fixed at 4° C. for 1 hour with the addition of 50 μL 30% trichloroacetic acid (TCA) to make a final concentration of 6% TCA. The plates were washed four times with H2O and allowed to dry for at least 1 hour, whereupon 100 μL of a 4% SRB in 1% acetic acid solution was added to each well and incubated at room temperature for at least 30 min. The plates were then washed three times with 1% acetic acid, dried, and treated with 100 μL of 10 mM Tris-Base solution. The plates were then read in a microplate reader at an absorbance of 570 nm. Background was generated on a separate plate with media only.
Determination of IC50 Values. First, the signals from the background plate were averaged, then the background was subtracted from the test plates.
With `O=C(Cc1ccncc1)N1CCC2(CC1)CC2CNC(=O)N1Cc2ccncc2C1` (stereo not drawn) [Example 190, N-[[6-[2-(4-pyridyl)acetyl]-6-azaspiro[2.5]octan-2-yl]methyl]-1,3-dihydropyrrolo[3,4-c]pyridine-2-carboxamide], the pIC50 was 7.29.

For `N#CCC(=O)N1CCC2(CC1)CC2CNC(=O)N1Cc2ccncc2C1` (stereo not drawn) [Example 191, N-[[6-(2-cyanoacetyl)-6-azaspiro[2.5]octan-2-yl]methyl]-1,3-dihydropyrrolo[3,4-c]pyridine-2-carboxamide], the pIC50 was 5.98.

As to `CC(C)(C)OC(=O)N1CCC2(CC1)CC(CNC(=O)c1cc3cnccc3[nH]1)C2` [Example 193, tert-butyl 2-[(1H-pyrrolo[3,2-c]pyridine-2-carbonylamino)methyl]-7-azaspiro[3.5]nonane-7-carboxylate], the pIC50 is 5.70.

Regarding `CC(C)(C)OC(=O)N1CCC2(CC1)CC(CNC(=O)c1cc3ccncc3o1)C2` [Example 194, tert-butyl 2-[(furo[2,3-c]pyridine-2-carbonylamino)methyl]-7-azaspiro[3.5]nonane-7-carboxylate], the pIC50 is 5.70.

Turning to `CC1(CC(=O)N2CCC3(CC2)CC3CNC(=O)c2cc3ccncc3o2)COC1` (stereo not drawn) [Example 195, N-[[6-[2-(3-methyloxetan-3-yl)acetyl]-6-azaspiro[2.5]octan-2-yl]methyl]furo[2,3-c]pyridine-2-carboxamide], the pIC50 is 6.66.

`O=C(CC1CCCCC1)N1CCC2(CC1)CC2CNC(=O)N1Cc2ccncc2C1` (stereo not drawn) [Example 196, N-[[6-(2-cyclohexylacetyl)-6-azaspiro[2.5]octan-2-yl]methyl]-1,3-dihydropyrrolo[3,4-c]pyridine-2-carboxamide]: the pIC50 is 8.44.

With `O=C(CN1CCOCC1)N1CCC2(CC1)CC2CNC(=O)N1Cc2ccncc2C1` (stereo not drawn) [Example 198, N-[[6-(2-morpholinoacetyl)-6-azaspiro[2.5]octan-2-yl]methyl]-1,3-dihydropyrrolo[3,4-c]pyridine-2-carboxamide], the pIC50 is 7.21.

Consider `CC(C)(C)OC(=O)N1CCC2(CC1)CC(CNC(=O)N1Cc3ccncc3C1)C2` [Example 200, tert-butyl 2-[(1,3-dihydropyrrolo[3,4-c]pyridine-2-carbonylamino)methyl]-7-azaspiro[3.5]nonane-7-carboxylate], for which the pIC50 was 7.61.

As for `O=C(Cc1cc(F)cc(F)c1)N1CCC2(CC1)CC2CNC(=O)N1Cc2ccncc2C1` (stereo not drawn) [Example 201, N-[[6-[2-(3,5-difluorophenyl)acetyl]-6-azaspiro[2.5]octan-2-yl]methyl]-1,3-dihydropyrrolo[3,4-c]pyridine-2-carboxamide], the pIC50 is 7.55.

Take `O=C(Cc1cccc(C(F)(F)F)c1)N1CCC2(CC1)CC2CNC(=O)N1Cc2ccncc2C1` (stereo not drawn) [Example 202, N-[[6-[2-[3-(trifluoromethyl]phenyl]acetyl]-6-azaspiro[2.5]octan-2-yl]methyl]-1,3-dihydropyrrolo[3,4-c]pyridine-2-carboxamide]: the pIC50 is 7.55.

In the case of `CC(C)(C)NC(=O)N1CCC2(CC1)CC2CNC(=O)c1cc2cnccc2[nH]1` (stereo not drawn) [Example 203, N-[[6-(tert-butylcarbamoyl)-6-azaspiro[2.5]octan-2-yl]methyl]-1H-pyrrolo[3,2-c]pyridine-2-carboxamide], the pIC50 is 5.70.

On to `COC(=O)C(C)(C)OC(=O)N1CCC2(CC1)CC2CNC(=O)c1cc2ccncc2o1` (stereo not drawn) [Example 205, (2-methoxy-1,1-dimethyl-2-oxo-ethyl) 2-[(furo[2,3-c]pyridine-2-carbonylamino)methyl]-6-azaspiro[2.5]octane-6-carboxylate], for which the pIC50 was 6.89.

For the compound `N#Cc1cccc(CC(=O)N2CCC3(CC2)CC3CNC(=O)c2cc3cnccc3[nH]2)c1` (stereo not drawn) [Example 206, N-[[6-[2-(3-cyanophenyl)acetyl]-6-azaspiro[2.5]octan-2-yl]methyl]-1H-pyrrolo[3,2-c]pyridine-2-carboxamide], the pIC50 is 5.70.

On to `O=C(NCC1CC12CCN(C(=O)Nc1ccccc1)CC2)N1Cc2ccncc2C1` (stereo not drawn) [Example 208, N-[[6-(phenylcarbamoyl)-6-azaspiro[2.5]octan-2-yl]methyl]-1,3-dihydropyrrolo[3,4-c]pyridine-2-carboxamide], for which the pIC50 is 7.58.

Take `O=C(NCc1ccccc1)N1CCC2(CC1)CC2CNC(=O)N1Cc2ccncc2C1` (stereo not drawn) [Example 210, N-[[6-(benzylcarbamoyl)-6-azaspiro[2.5]octan-2-yl]methyl]-1,3-dihydropyrrolo[3,4-c]pyridine-2-carboxamide]: the pIC50 was 6.50.

Turning to `O=C(NCC1CC12CCN(S(=O)(=O)Cc1ccccc1)CC2)N1Cc2ccncc2C1` (stereo not drawn) [Example 211, N-[(6-benzylsulfonyl-6-azaspiro[2.5]octan-2-yl)methyl]-1,3-dihydropyrrolo[3,4-c]pyridine-2-carboxamide], the pIC50 was 6.88.

Take `CC(C)(CO)OC(=O)N1CCC2(CC1)CC2CNC(=O)c1cc2ccncc2o1` (stereo not drawn) [Example 215, (2-hydroxy-1,1-dimethyl-ethyl) 2-[(furo[2,3-c]pyridine-2-carbonylamino)methyl]-6-azaspiro[2.5]octane-6-carboxylate]: the pIC50 was 7.18.

For `N#Cc1ccc(CC(=O)N2CCC3(CC2)CC3CNC(=O)c2cc3cnccc3[nH]2)cc1` (stereo not drawn) [Example 216, N-[[6-[2-(4-cyanophenyl)acetyl]-6-azaspiro[2.5]octan-2-yl]methyl]-1H-pyrrolo[3,2-c]pyridine-2-carboxamide], the pIC50 was 5.87.

`Cn1cc(C(=O)N2CCC3(CC2)CC3CNC(=O)N2Cc3ccncc3C2)cn1` (stereo not drawn) [Example 221, N-[[6-(1-methylpyrazole-4-carbonyl)-6-azaspiro[2.5]octan-2-yl]methyl]-1,3-dihydropyrrolo[3,4-c]pyridine-2-carboxamide]: the pIC50 was 7.60.

On to `CCn1nc(C)c(C(=O)N2CCC3(CC2)CC3CNC(=O)c2cc3c(o2)C=NCC3)c1C` (stereo not drawn) [Example 222, N-[[6-(1-isopropyl-3,5-dimethyl-pyrazole-4-carbonyl)-6-azaspiro[2.5]octan-2-y]methyl]furo[2,3-c]pyridine-2-carboxamide], for which the pIC50 was 7.93.

Regarding `Cc1nn(-c2ccc(F)cc2)c(C)c1C(=O)N1CCC2(CC1)CC2CNC(=O)c1cc2ccncc2o1` (stereo not drawn) [Example 223, N-[[6-[1-(4-fluorophenyl)-3,5-dimethyl-pyrazole-4-carbonyl]-6-azaspiro[2.5]octan-2-yl]methyl]furo[2,3-c]pyridine-2-carboxamide], the pIC50 was 8.72.

`O=C(CCN1CCOCC1)N1CCC2(CC1)CC2CNC(=O)N1Cc2ccncc2C1` (stereo not drawn) [Example 229, N-[[6-(3-morpholinopropanoyl)-6-azaspiro[2.5]octan-2-yl)methyl]-1,3-dihydropyrrolo[3,4-c]pyridine-2-carboxamide]: the pIC50 was 7.74.

`O=C(NCC1CC12CCN(C(=O)C(F)(F)c1ccccc1)CC2)N1Cc2ccncc2C1` (stereo not drawn) [Example 230, N-[[6-(2,2-difluoro-2-phenyl-acetyl)-6-azaspiro[2.5]octan-2-yl]methyl]-1,3-dihydropyrrolo[3,4-c]pyridine-2-carboxamide]: the pIC50 is 7.52.

Regarding `Cc1cccnc1C(=O)N1CCC2(CC1)CC2CNC(=O)c1cc2ccncc2o1` (stereo not drawn) [Example 231, N-[[6-(3-methylpyridine-2-carbonyl)-6-azaspiro[2.5]octan-2-yl]methyl]furo[2,3-c]pyridine-2-carboxamide], the pIC50 was 6.29.

Take `Cc1cnccc1C(=O)N1CCC2(CC1)CC2CNC(=O)c1cc2ccncc2o1` (stereo not drawn) [Example 232, N-[[6-(3-methylpyridine-4-carbonyl)-6-azaspiro[2.5]octan-2-yl]methyl]furo[2,3-c]pyridine-2-carboxamide]: the pIC50 is 6.68.

For the compound `Cc1ccc(C(=O)N2CCC3(CC2)CC3CNC(=O)c2cc3ccncc3o2)cn1` (stereo not drawn) [Example 233, N-[[6-(6-methylpyridine-3-carbonyl)-6-azaspiro[2.5]octan-2-yl]methyl]furo[2,3-c]pyridine-2-carboxamide], the pIC50 was 6.54.

With `Cc1ccnc(C(=O)N2CCC3(CC2)CC3CNC(=O)c2cc3ccncc3o2)c1` (stereo not drawn) [Example 235, N-[[6-(4-methylpyridine-2-carbonyl)-6-azaspiro[2.5]octan-2-yl]methyl]furo[2,3-c]pyridine-2-carboxamide], the pIC50 is 5.81.

Turning to `O=C(NCC1CC12CCN(C(=O)c1cccc3[nH]cnc13)CC2)c1cc2ccncc2o1` (stereo not drawn) [Example 236, N-[[6-(1H-benzimidazole-4-carbonyl)-6-azaspiro[2.5]octan-2-yl]methyl]furo[2,3-c]pyridine-2-carboxamide], the pIC50 is 7.33.

For the compound `O=C(NCC1CC12CCN(C(=O)c1cc3cccn3cn1)CC2)c1cc2ccncc2o1` (stereo not drawn) [Example 237, N-[[6-(pyrrolo[1,2-c]pyrimidine-3-carbonyl)-6-azaspiro[2.5]octan-2-yl]methyl]furo[2,3-c]pyridine-2-carboxamide], the pIC50 was 6.78.

As to `O=C(NCC1CC12CCN(C(=O)c1ccc3[nH]nnc3c1)CC2)c1cc2ccncc2o1` (stereo not drawn) [Example 238, N-[[6-(1H-benzotriazole-5-carbonyl)-6-azaspiro[2.5]octan-2-yl]methyl]furo[2,3-c]pyridine-2-carboxamide], the pIC50 was 6.04.

As for `O=C(NCC1CC12CCN(C(=O)c1ccnc3[nH]ccc13)CC2)c1cc2ccncc2o1` (stereo not drawn) [Example 239, N-[[6-(1H-pyrrolo[2,3-b]pyridine-4-carbonyl)-6-azaspiro[2.5]octan-2-yl]methyl]furo[2,3-c]pyridine-2-carboxamide], the pIC50 is 7.53.

The experiment is the same for the next values; noted with them: Homo sapiens, A2780, 72 h, read-out: Cell Proliferation (IC50).
Consider `CC1(OC(=O)N2CCC3(CC2)CC3CNC(=O)N2Cc3ccncc3C2)CCC1` (stereo not drawn) [Example 228, (1-methylcyclobutyl) 2-[(1,3-dihydropyrrolo[3,4-c]pyridine-2-carbonylamino)methyl]-6-azaspiro[2.5]octane-6-carboxylate], for which the pIC50 is 8.32.

Staying with this experiment, now noted: Homo sapiens; A2780 cells, 72 hours, SRB; read-out: Cell Proliferation (IC50).
For the compound `N#Cc1ccc(CC(=O)N2CCC3(CC2)CC3CNC(=O)N2Cc3ccncc3C2)cc1` (stereo not drawn) [Example 207, N-[[6-[2-(4-cyanophenyl)acetyl]-6-azaspiro[2.5]octan-2-yl]methyl]-1,3-dihydropyrrolo[3,4-c]pyridine-2-carboxamide], the pIC50 is 6.87.
